Test results from article PMC9061999, “Application of the Adverse Outcome Pathway Concept to In Vitro Nephrotoxicity Assessment: Kidney Injury due to Receptor-Mediated Endocytosis and Lysosomal Overload as a Case Study” (Frontiers in Toxicology, 2022).
Where a name gives a salt, the structure may show the parent alone. Read-outs that look alike come from different tables or passages of the source.

Columns and labels:
RPTEC/TERT1 cells = assay type: cell-based, human
Protocol: For high content imaging, NRK-52E and RPTEC/TERT1 cells were cultivated in µ-clear half well area microtiter plates (Greiner) according to the protocol described for the cytotoxicity assay with slight modification. Briefly, NRK-52E cells were seeded at 5,000 cells in 100 µL growth medium per well and were incubated under standard growth conditions for 48 h prior to treatment. RPTEC/TERT1 cells were seeded at 15,000 cells in 100 µL growth medium per well and incubated under standard growth conditions for 7–8 days, until cells reached confluence and started to differentiate. This was indicated by the formation of three-dimensional structures referred to as domes which were identified by regular microscopic inspection of the plates. Only differentiated cell cultures with detectable domes were assayed. Cells of both cell lines were treated with serially diluted Polymyxin B sulfate (concentration range 7.8 to 2,000 µM) for 1, 2, 4, 6, or up to 24 h. The assay was carried out on three biological replicates defined as three different non-consecutive passages of the cell culture. Each biological replicate at each treatment concentration was assayed in triplicate wells per plate.
Following treatment, cells were stained with two different combinations of fluorescent dyes: NRK-52E cells with 50 pg/μL LysoView™ 633 (Biotium) and 1 µM SYTO 16 (Thermo Scientific), respectively, for lysosomes and nuclei; RPTEC/TERT1 cells with 10 nM LysoTracker™ Red (Thermo Scientific) and 10 ng/μL Hoechst 33342 (Merck-Sigma Aldrich), respectively, for lysosomes and nuclei. For each cell line a staining solution was obtained by mixing the lysosomes and nuclei dyes in cell culture medium at the concentrations indicated above. The cells were stained by replenishing the medium for 100 µL of staining solution per well followed by incubation at 37°C and 5% CO2 for 30 min before imaging.
Images were acquired with a fully automated fluorescence confocal Opera™ QEHS system (PerkinElmer, United Kingdom) using a ×40 air UPlanApo objective (Olympus) with 0.85 numerical aperture. NRK-52E cells stained with the dyes SYTO 16 and LysoView™633 were imaged with the laser lines 488 and 635 nm, using a 488/561/635 nm primary dichroic mirror, a 510 nm long pass (LP) detection dichroic mirror, a 540/75 nm band pass (BP) emission filter for SYTO 16 and a 690/50 nm BP emission filter for LysoView™ 633. RPTEC/TERT1 cells stained with the dyes Hoechst 33342 and LysoTracker™Red were imaged with the laser lines 405 and 561 nm, using a 405/561/635 nm primary dichroic mirror, a 580 nm LP detection dichroic mirror, a 450/50 nm BP emission filter for Hoechst 33342 and a 600/40 nm BP emission filter for LysoTracker™Red. To prevent cross talk of the fluorescent signals, each dye was imaged consecutively using the combination of lasers and filters described above. The settings for laser power, exposure time and focal height were kept constant for each cell line across all the experiments. For NRK-52E cells images were acquired at 25 randomly distributed positions in a well at a single focal plane whereas for RPTEC/TERT1 cells due to the development of dome structures images were acquired at 9 random positions at three focal planes each 1 μm apart.
The images were analyzed by custom-made image analysis scripts either with the imaging analysis software Acapella (version 2.8 PerkinElmer) or Columbus (version 2.4.0 PerkinElmer). The scripts included modules for the identification and counting of the cell nuclei to extrapolate the number of cells per well, for definition of a cytoplasm surrounding the nucleus, for identification and counting of the lysosome vesicles within the cytoplasm. Additional cellular parameters included the nuclei size, intensity, the cell size (cell area), the lysosome size (lysosome area), intensity and the number of lysosomes normalized by the cell area to compensate for difference in size of the cells.

[1] = test system: RPTEC/TERT1 and NRK-52E cells; assay: In vitro key event assays (LAMP-1/2, cathepsin D, cell viability) compared across both cell models; assay type: cell-based, human and rat; conditions: for Effect on cell viability / cytotoxicity (KE3): CellTiter-Glo
Protocol: Cells were plated into 96-well tissue culture plates (10,000 cells per well) and were allowed to grow for 48 h (NRK-52E) respectively 10 d (RPTEC/TERT1) prior to 24 h treatment with model stressors. Stock solution for each compound (2000 µM) was prepared in growth medium and serial dilutions (1:1) were made before each experiment. At the end of the 24 h treatment, cell viability was measured using the CellTiter-Glo® assay (Promega). CellTiter-Glo® reagents and buffer were mixed under light-protected conditions and 100 µL CellTiter-Glo® solution was added directly to each well followed by 2 min incubation on an orbital shaker and 10 min incubation at room temperature in the dark to stabilize the luminescence signal. The suspension was mixed via pipetting and 50 µL were transferred into white 96-well plates (PerkinElmer Inc.). The luminescence signal was measured on a multiplate reader (Mithras LB 940; Berthold). Each assay was performed in three independent experiments carried out in triplicates.
For immunocytochemistry experiments, cells were seeded into 8-well chamber slides (Ibidi) at a density of 140 cells per µL in 300 µL growth medium and were allowed to grow for 48 h (NRK-52E) or 10 d (RPTEC/TERT1) respectively. For treatment, stock solutions (1,000 µM) of compounds dissolved in growth medium were freshly prepared and serial dilutions were made before exposure of cells for 24 h. After treatment, cells were washed twice with 150 µL PBS and fixed with 150 µL 4% paraformaldehyde in 1 x PBS for 10 min at room temperature. After fixation, cells were washed 10 min with 150 µL PBS on an orbital shaker followed by permeabilization with 150 µL 0.2% Triton X-100 in 1 x PBS for 5 min at room temperature on an orbital shaker. The permeabilized cells were washed twice with 1 x PBS (150 µL) for 10 min at room temperature on an orbital shaker and then incubated with 150 µL 5% BSA dissolved in 1 x PBS for 1 h at room temperature to block unspecific binding sites. After blocking, 100 µL primary antibody diluted 1:100 in 1% BSA in 1 x PBS were directly pipetted onto the cells and incubated overnight at 4°C. The following antibodies were employed for NRK-52E cells: Anti-LAMP-1 monoclonal IgG1 kappa mouse antibody (Santa Cruz; sc-20011), anti-Cathepsin D mouse monoclonal IgG2 kappa antibody (Santa Cruz; sc-377124); for RPTEC/TERT1 cells: Anti-LAMP-2 monoclonal mouse antibody (Santa Cruz; sc-18822), anti-Cathepsin D mouse monoclonal IgG2b kappa (Novus Biologicals; NBP1-04278); for both cell lines anti-megalin mouse monoclonal IgG1 antibody (Santa Cruz, sc-515772).
After incubation with primary antibody, cells were washed three times for 15 min with 0.2% Tween in 1 x PBS (150 µL) on an orbital shaker. Cells were incubated for 1 h at room temperature with 100 µL CFL 488-conjugated mouse IgG kappa binding protein (1:50) (m-IgGκ BP-CFL 488; Santa Cruz, sc-516176). After incubation the cells were washed three times for 15 min with 0.2% Tween in 1 x PBS on an orbital shaker and once with 150 µL sterile water. Phalloidin-tetramethylrhodamine B isothiocyanate (TRITC) was used to stain the cytoskeleton and was diluted in 100% methanol to a stock concentration of 0.1 mg/ml and further diluted in 1 x PBS to a working concentration of 0.095 µM. After cells were washed once with 1 x PBS for 10 min at room temperature 150 µL phalloidin-TRITC working solution was added and the cells were incubated on an orbital shaker at room temperature for 60–90 min. After incubation, phalloidin-TRITC solution was aspirated, and the cells were washed once with 1 x PBS. Chamber slides were allowed to dry for 15 min at room temperature. To preserve fluorescence 50–100 µL DAPI mounting medium (Vectashield®; Vectorlab, Biozol) was added to the cells and chamber slides were stored at 4°C in the dark until image acquisition. […]

[2] = RPTEC/TERT1 and NRK-52E, 24 h treatment
[3] = RPTEC/TERT1, 24 h, 7.8 to 2000 µM (smaller range for CdCl2 and 4-aminophenol), triplicate experiments, Figure S1

| Compound | Effect on lysosomal endpoints in high content screening (RPTEC/TERT1 cells; [3]) | further results |
| --- | --- | --- |
| Nc1ccc(O)cc1 [4-aminophenol] | – | Effect on lysosomal endpoints in high content screening (RPTEC/TERT1 cells): minor changes |
| [Cl][Cd][Cl] [CdCl2, cadmium chloride] | most prominent effects on lysosomal endpoints | Cytotoxicity compared between RPTEC/TERT1 and NRK-52E cells ([1]; 24 h treatment, cell viability): more toxic in NRK-52E cells; Effect on LAMP-1/2 expression (KE1) ([1]; RPTEC/TERT1 and NRK-52E, 24 h, immunofluorescence image analysis): only minor effects on LAMP1/2 expression; Effect on cell viability / cytotoxicity (KE3) [1, 2]: significant cytotoxicity |
| N[C@@H](CSC(Cl)=C(Cl)Cl)C(=O)O [TCVC, S-(1,2,2-trichlorovinyl)-L-cysteine] | minor changes | – |
| Nc1ccn(C[C@@H](CO)OCP(=O)(O)O)c(=O)n1 [cidofovir] | minor changes | – |
| CNC(C)C1CCC(N)C(OC2C(N)CC(N)C(OC3OCC(C)(O)C(NC)C3O)C2O)O1 (centres unmarked) [gentamicin] | most prominent effects on lysosomal endpoints | – |
| CC(C)OC(=O)OCOP(=O)(CO[C@H](C)Cn1cnc2c(N)ncnc21)OCOC(=O)OC(C)C [tenofovir disoproxil fumarate] | minor changes | – |
| C[C@H](Cn1cnc2c(N)ncnc21)OCP(=O)(O)O [tenofovir] | minor changes | – |
| CN[C@H](CC(C)C)C(=O)N[C@H]1C(=O)N[C@@H](CC(N)=O)C(=O)N[C@H]2C(=O)N[C@H]3C(=O)N[C@H](C(=O)N[C@H](C(=O)O)c4cc(O)cc(O)c4-c4cc3ccc4O)[C@H](O)c3ccc(c(Cl)c3)Oc3cc2cc(c3O[C@@H]2O[C@H](CO)[C@@H](O)[C@H](O)[C@H]2O[C@H]2C[C@](C)(N)[C@H](O)[C@H](C)O2)Oc2ccc(cc2Cl)[C@H]1O [vancomycin] | – | Effect on lysosomal endpoints in high content screening (RPTEC/TERT1 cells): most prominent effects on lysosomal endpoints |
| Polymyxin B nonapeptide | most prominent effects on lysosomal endpoints | Rank order of effects of the 3 polymyxin derivatives across all KEs ([1]; RPTEC/TERT1 and NRK-52E, 24 h): least toxic; Effect on cell viability / cytotoxicity (KE3) [1, 2]: low |
